{"source": "a melting point compilation (Tetko et al.; mined from patent text by program, amines drawn as free bases though some values may be those of a salt)"}
{"units": {"melting point": "°C"}}
{"smiles": "O=S(=O)(c1cccc(-c2cccc(-c3nc(-c4ccc(C(F)(F)F)cc4)cc(C(F)(F)F)n3)c2)c1)N(CCO)CCO", "melting point": 112}
{"smiles": "COc1cc2c(Nc3ccc(Cl)cc3F)ncnc2cc1OCCNC(=O)OC(C)(C)C", "melting point": "190 to 191"}
{"smiles": "CC(C)(C)OC(=O)N1C(=O)c2ccccc2C1=O", "melting point": "90 to 92"}
{"smiles": "O=C(O)c1cnn2c(C(F)F)cc(-c3ccc(Cl)c(Cl)c3)nc12", "melting point": 263}
{"smiles": "COC(=O)COc1cc(N(C(=O)CCl)C(=O)C2=C(C(=O)OC)CCCC2)c(F)cc1Cl", "melting point": "144 to 145"}
{"smiles": "CS(=O)(=O)c1ccc(-c2cnn(C3CCCC3)c(=O)c2-c2ccc(F)cc2)cc1", "melting point": "191 to 193"}
{"smiles": "CCc1[nH]n(C2CCCC2)c2nc(-c3ccc(Cl)cc3O)nc(=O)c1-2", "melting point": "> 300"}
{"smiles": "Cc1cc2c(cc1F)NC(=O)C2", "melting point": "168 to 171"}
{"smiles": "CN=C1CCCc2scnc21", "melting point": "233 to 235"}
{"smiles": "O=C(O)c1ncccc1CCc1cccc(F)c1", "melting point": "118 to 122"}
{"smiles": "Cn1ncc(C(=O)N2CCOCC2)c1C(=O)Nc1ccc2nc(-c3ccccc3)nn2c1", "melting point": "183 to 185"}
{"smiles": "CSc1c(CC(=O)O)n(Cc2ccc(Cl)cc2)c2ccc(CF)cc12", "melting point": "136 to 140"}
{"smiles": "Cc1ccc2[nH]c3c(c2c1)C(C(=O)O)CCC3", "note": "(configuration not stated)", "melting point": "194 to 197"}
{"smiles": "CCCN1CCCN(c2ccccc2)c2cc(Cl)ccc21", "melting point": "192 to 194"}
{"smiles": "N#CNc1ccccc1N1CCOCC1", "melting point": "175 to 176"}
{"smiles": "CC1CC(=O)NN=C1c1ccc(NCCN)c(N)c1", "note": "(configuration not stated)", "melting point": "176 to 177"}
{"smiles": "Nc1cc(NC(=O)c2cc3cc(C(F)(F)F)ccc3n2Cc2cccc(F)c2)ccn1", "melting point": "225 to 226"}
{"smiles": "CCCC1(C(=O)NCc2ccc(N3Cc4ccccc4C3=O)cc2)c2ccccc2-c2ccccc21", "melting point": "96 to 99"}
{"smiles": "Nc1ccc(OC2=CC=CN(Oc3ccc(N)cc3)C2)cc1", "melting point": "152 to 154"}
{"smiles": "CCN(CC)CCOc1ccc(C(O)(CC)c2ccccc2)cc1", "note": "(configuration not stated)", "melting point": 113}
{"smiles": "N#Cc1ccc(Cn2cc(C=CC=O)nn2)cc1", "melting point": "152 to 155"}
{"smiles": "Cc1cc(-c2cnn3c(O)ncnc23)ccc1S(C)=O", "note": "(configuration not stated)", "melting point": "281 to 282"}
{"smiles": "CSc1nc2cccccc-2n1", "melting point": "101 to 102"}
{"smiles": "CC(C)(C)OC(=O)N1C[C@H](O)C[C@H]1C(N)=O", "melting point": "146 to 148"}
{"smiles": "COc1ccc(S(=O)(=O)c2c(C(C)C)nn3ccccc23)cc1", "melting point": "138 to 139"}
{"smiles": "COc1cccc2c(O)c(C(=O)NCC(=O)O)ncc12", "melting point": 168}
{"smiles": "Cc1ccc([C@@H]2c3c(C)c(NC(=O)Cc4ccc(C(F)(F)F)cc4)c(C)c(C)c3OC2(C)C)cc1", "melting point": "187 to 189"}
{"smiles": "COc1cc(Cl)c2c(=O)c(Br)coc2c1", "melting point": "176 to 177"}
{"smiles": "Cc1[nH]c2c(Cl)cc(Nc3cnccc3N)cc2c1C", "melting point": "108 to 110"}
{"smiles": "CSc1ccc(N)c(C(=O)NCC2CCN(C(c3ccccc3)c3ccccc3)CC2)c1", "melting point": "156 to 157"}
{"smiles": "CCCCN(CC)CC1CCCCN1CCNC(=O)N1c2ccccc2C(=O)Nc2cccnc21", "note": "(configuration not stated)", "melting point": "156 to 157"}
{"smiles": "CCCCCCCCCCCCCCCCCCNC(=O)c1ccccc1I", "melting point": "94 to 96"}
{"smiles": "O=C1c2c(Br)cccc2S(=O)(=O)N1CCl", "melting point": "157 to 159"}
{"smiles": "O=C(O)COc1ccc(SCc2cc(-c3ccc(Cl)cc3)on2)c2c1CCCO2", "melting point": "131 to 133"}
{"smiles": "O=C(O)[C@H](Cc1ccccc1)NS(=O)(=O)c1ccc(Cl)cc1", "melting point": "132 to 134"}
{"smiles": "CC(=O)c1ccc2c3c1ccn3C(=O)CNC2", "melting point": "285 to 287"}
{"smiles": "CCO/N=C1\\CCc2ccccc2C1=Cc1ccc(S(C)(=O)=O)cc1", "melting point": "151 to 152"}
{"smiles": "COc1ccccc1S(=O)(=O)c1ccc2c(c1)[C@@H](N1CCCC1=O)[C@H](O)C(C)(C)O2", "note": "(relative stereo)", "melting point": "196 to 198"}
{"smiles": "CC(CNc1cccc(C(F)(F)F)c1)Nc1cccc(C(F)(F)F)c1", "note": "(configuration not stated)", "melting point": "116 to 120"}
{"smiles": "COC(=O)C(Oc1cc(OCc2ccsc2)ccc1C#N)c1ccccc1Cl", "note": "(racemic)", "melting point": "102 to 104"}
{"smiles": "CCCCCCCCCCCCCCCC(=O)NCCCSc1ccncc1", "melting point": "84 to 85"}
{"smiles": "COc1ccc(C(O)CNCCc2ccc(OC)c(OC)c2)cc1", "note": "(configuration not stated)", "melting point": 92}
{"smiles": "CN(C)C=CC(=O)c1c[nH]c2ccccc12", "melting point": "239 to 245"}
{"smiles": "Cc1cc(-c2cnc(N)c(C(=O)Nc3cccnc3)n2)ccc1F", "melting point": "186 to 189"}
{"smiles": "Cn1cc(-c2ccccc2)c(=O)c(-c2ccc3ccccc3c2)c1", "melting point": "101 to 105"}
{"smiles": "NC(=O)c1ccc(Nc2ccncc2)cc1", "melting point": "223 to 226"}
{"smiles": "COc1ccc(N2CCN(c3c(C)c(C)c4c(c3C)CC(C)(CN(Cc3ccccc3)Cc3ccccc3)O4)CC2)cc1", "note": "(configuration not stated)", "melting point": "168 to 170"}
{"smiles": "COCN(c1cccc2cc(C(=O)/N=C/N(C)C)n(COC)c12)S(=O)(=O)c1cccs1", "melting point": "146 to 147"}
{"smiles": "CC(C(=O)O)C1CCC(C)(CCC2(C)C(C)CCC3(C)C(C)(C)CCCC23O)OO1", "note": "(configuration not stated)", "melting point": "157 to 159"}
{"smiles": "CC(=O)N1CC(CCN2CCC(c3ccccc3)CC2)c2ccccc21", "note": "(configuration not stated)", "melting point": "92 to 93"}
{"smiles": "O=C(O)c1cc2cc(-c3ccsc3)ccc2o1", "melting point": "215 to 220"}
{"smiles": "O=C(O)CCCCC(=O)NCc1ccc2c(c1)C(=O)N(C1CCC(=O)NC1=O)C2=O", "note": "(configuration not stated)", "melting point": "144 to 146"}
{"smiles": "CN1Cc2c(N)ncn2-c2ccccc2C1=O", "melting point": "202 to 204"}
{"smiles": "CN1CC(C(=O)NC2NCCS2)CC2c3ccc(C(C)(C)C)c4[nH]cc(c34)CC21", "note": "(configuration not stated)", "melting point": "243 to 247"}
{"smiles": "CC(C)CC1(C(C)C(=O)O)CCN(CCc2ccccc2)C1=O", "note": "(configuration not stated)", "melting point": "94 to 95"}
{"smiles": "NC(=O)N1C[C@@H](O)[C@H](Oc2ccc(Cl)cc2)C1", "note": "(relative stereo)", "melting point": "223 to 225"}
{"smiles": "CC(=O)OCC1(C)SC2C(NC(=O)Cc3ccccc3)C(=O)N2C1C(=O)OCC(Cl)(Cl)Cl", "note": "(configuration not stated)", "melting point": "116 to 118"}
{"smiles": "COc1ccc(S(=O)(=O)N(Cc2cccnc2)c2c(C(=O)O)cnc3cc(C)nn23)cc1", "melting point": "249 to 251"}
{"smiles": "CCOC(=O)c1ccc(OCCCCCCCCCCCCCCCCCCCCOc2ccc(Cl)cc2)cc1", "melting point": "78 to 80"}
{"smiles": "CCOC(=O)c1c[nH]c2nc(N3CCC(N)C3)c(F)cc2c1=O", "note": "(configuration not stated)", "melting point": "139 to 141"}
{"smiles": "COc1ccccc1Cc1c(Cl)ncnc1Cl", "melting point": "95 to 96"}
{"smiles": "CC1Cc2cc(S(N)(=O)=O)cc(C(=O)NCC3CCCN3C)c2O1", "note": "(configuration not stated)", "melting point": "187 to 189"}
{"smiles": "NCC1Cc2cc(-c3ccccc3Cl)cc(F)c2O1", "note": "(configuration not stated)", "melting point": "> 250"}
{"smiles": "CC(NC(=O)C1C(O)N(Cc2ccccc2)C(=O)N1Cc1ccccc1)c1cccs1", "note": "(configuration not stated)", "melting point": "108 to 129"}
{"smiles": "CSc1ncc(C(C)O)c(N)n1", "note": "(configuration not stated)", "melting point": "140 to 142"}
{"smiles": "CCc1cc(OCc2ccc(-c3ccccc3-c3nnn(C(c4ccccc4)(c4ccccc4)c4ccccc4)n3)cc2)c2c(n1)CCCCC2", "melting point": "147 to 148"}
{"smiles": "O=C(O)c1ccc(-c2nnn[nH]2)cc1Sc1ccccc1", "melting point": "239 to 240"}
{"smiles": "CCOC(=O)c1ccc(COCc2csc3nc(C(=O)NCc4cccc(N(C)C(=O)C(F)(F)F)c4)[nH]c(=O)c23)cc1", "melting point": "208 to 209"}
{"smiles": "CC=C1CCC(C(=O)OCCOC(=O)C2=C(C)C(=CC)CC2)=C1C", "melting point": "95 to 97"}
{"smiles": "Cc1oc(-c2ccccc2)nc1CCCCCOC(C)(C)C(=O)O", "melting point": "66 to 68"}
{"smiles": "O=C(N[C@@H]1CCC[C@H]1O)C(O)=CC(=O)c1cc(Cc2ccc(F)cc2F)cn(Cc2ccccc2F)c1=O", "melting point": "55 to 57"}
{"smiles": "COc1ccc(C(=O)Nc2cccc(Cl)c2)cc1NC(=S)Nc1ccc(F)cc1", "melting point": "184 to 185"}
{"smiles": "O=C(O)c1ccc(O)c(NC(=O)C(CS)Cc2ccccc2)c1", "note": "(configuration not stated)", "melting point": "226 to 227"}
{"smiles": "COc1ccc2[nH]c(C(C)=O)cc2c1", "melting point": "164 to 167"}
{"smiles": "Nc1ccc(OCCCCOc2ccc(N)cc2[N+](=O)[O-])c([N+](=O)[O-])c1", "melting point": "194 to 196"}
{"smiles": "Cc1ccc2c(c1)C=Cc1cc(C)ccc1C2c1cn(Cc2ccc(C(=O)N[C@@H](CC(=O)O)C(=O)O)o2)c(=O)[nH]c1=S", "melting point": 195}
{"smiles": "CCOC(=O)c1c(C)nc(Cl)c([N+](=O)[O-])c1N", "melting point": "73 to 75"}
{"smiles": "CN1CCN(c2cccc3ccc(NCc4ccccc4)cc23)CC1", "melting point": "115 to 117"}
{"smiles": "CN(C)S(=O)(=O)c1cc2c(c(Cl)c1Cl)OC(C(=O)O)C2", "note": "(configuration not stated)", "melting point": 154}
{"smiles": "Cc1ccc(Nc2nc(-c3ccc(-c4ccccn4)s3)cs2)nc1", "melting point": "197 to 199"}
{"smiles": "COC(=O)c1cc2cc3[nH]c(=O)oc3cc2[nH]1", "melting point": "267 to 277"}
{"smiles": "O=C(C#Cc1ccc(CN2CCCCC2)cc1)Nc1ccc(-c2ccc(Cl)cc2)cc1", "melting point": 180}
{"smiles": "O=C(O)/C=C/c1ccc(-c2ccc(O)c(C34CC5CC(CC(C5)C3)C4)c2)c(Cl)c1", "melting point": "257 to 259"}
{"smiles": "COc1ccc2c(cccc2[C@H]2CO[C@H](CCCNC(=O)OCC(=O)NC3CC3)OC2)c1", "melting point": 176}
{"smiles": "Cn1cc(C2=C(c3c4n(c5ccccc35)CCCC4)C(=O)NC2=O)c2ccccc21", "melting point": "286 to 289"}
{"smiles": "Oc1ccc(CCCn2ccnc2)cc1", "melting point": "158 to 160"}
{"smiles": "NNC(=O)N(NC(=O)CSC(=O)c1ccccc1)C(=O)CSC(=O)c1ccccc1", "melting point": "184 to 190"}
{"smiles": "CN(CCOC1CCCCO1)c1cc(NC(=O)OC(C)(C)C)c([N+](=O)[O-])cc1C#Cc1ccc(F)cc1", "note": "(racemic)", "melting point": 134}
{"smiles": "COc1ccc(CN(CCN(C)CCCCCCNC(=O)NCCCOc2cccc(CN3CCCCC3)c2)c2ccccn2)cc1", "melting point": 75}
{"smiles": "O=Cc1cc2n(n1)CCOC2=O", "melting point": "135 to 136"}
{"smiles": "Oc1nc(O)c2c(n1)CCCS2", "melting point": "> 300"}
{"smiles": "Cc1cc(Oc2ccc(S(=O)(=O)c3ccc(Cl)cc3)cc2)ccc1N", "melting point": 200}
{"smiles": "N#CCCc1cccc([N+](=O)[O-])c1", "melting point": "86 to 88"}
{"smiles": "COC(=O)Cc1ccc(O)c(F)c1", "melting point": "32 to 34"}
{"smiles": "CC(C)(O)Cn1c(CO)nc2c(N)nc3cc(-c4ccccc4)cnc3c21", "melting point": "244 to 245"}
{"smiles": "CCOc1cc2ncc3c(N)nc(-c4ccc(Br)cc4)cc3c2cc1OCC", "melting point": "230 to 235"}
{"smiles": "COc1cc(/C=C/C(=O)O)ccc1OCc1sc(-c2ccc(C(F)(F)F)cc2)nc1C", "melting point": "235 to 237"}
{"smiles": "CC(C)C(=O)NCCC1C=CC=CC1=O", "note": "(configuration not stated)", "melting point": "88 to 93"}
{"smiles": "O=CC(=C(c1ccc(F)cc1)c1ccc(F)cc1)n1cnnn1", "melting point": 161}
{"smiles": "CSC(Nc1cccc(CNC(=O)OC(C)(C)C)c1)=C(C#N)C#N", "melting point": "150 to 151"}
{"smiles": "C=CS(=O)(=O)CCCS(=O)(=O)C=C", "melting point": "60 to 63"}
{"smiles": "O=C1N[C@H]2OC(c3ccccc3)=N[C@@H]12", "melting point": 159}
